From patent US11000485B2, “Substituted hydroxystilbenes as AhR and Nrf2 modulators and their therapeutic applications” (Resolvex Pharmaceuticals Inc., priority 2017, dated 2021)
Each block holds one compound with its values, some of them ahead of it.

Assays:
[1] = test system: THP1 cells; test: Cell viability (MTS); assay type: cell-based
Method: (§1) Cells were cultured in RPMI-1640 containing 10% FBS (Jurkat and THP-1) or DMEM containing 10% FBS (A549 and MDA-MB-435). On Day 1, 1-5×10^4 cells per well in 100 μL of the cell culture medium containing 0.5% FBS were seeded into a 96-well flat bottom plate. On Day 2, the test compounds were added to the culture at different concentrations in triplicates. The controls include triplicates of no compound treatment and cell culture medium without cells. The cells were incubated at 5% CO2, 37° C. for 48 hours. On Day 4, MTS reagent was added to each well and incubated at 37° C. for 4 hours. The absorbance was read at 490 nm. The percentage of inhibition was calculated using the formula: [1-(experiment reading-background reading)/(negative control reading-background reading)]×100.

[2] = test system: MDA-MB-435 cells; test: Cell viability (MTS); assay type: cell-based
Method: as §1

[3] = test system: Jurkat cells; test: Cell viability (MTS); assay type: cell-based; details: 48 hours
Method: as §1

[4] = test system: MDA-MB-435 cells; test: Cell proliferation ([3H]-thymidine); assay type: cell-based; details: read-out: Anti-proliferation IC50, MDA-MB-435
Method: (§2) Cells were cultured in RPMI-1640 containing 10% FBS (Jurkat) or DMEM containing 10% FBS (MDA-MB-435). On Day 1, 1×10^4 cells were seeded into one well of a 96-well white ISOPLATE™ with 0.5% FBS. The cells were cultured at 5% CO2, 37° C. overnight. On Day 2, the diluted test compounds were added into each well in a total volume of 100 μL of cell culture medium. For each cell line were set up three wells containing cells and only diluted DMSO as a negative (vehicle) control, and three wells without cells but containing the same volume and type of cell culture medium as background control. The cells were incubated at 5% CO2, 37° C. for 24 hours. On Day 3, 1 μL of [^3H]-thymidine was added into each well and incubation at 5% CO2, 37° C. was continued for another 24 hours. On Day 4, 30 μL of 50% TCA was added into each well and was incubated at 4° C. for 4 hours. Plates were washed with ddH2O four times and then air dried for 30 minutes followed by the addition of 100 μL of scintillation fluid into each well. The radioactivity was read using MICROBETA TRILUX™. The percentage of inhibition was calculated using the formula [1-(experiment reading-background reading)/(negative control reading-background reading)]×100.

[5] = test system: Jurkat cells; test: Cell proliferation ([3H]-thymidine); assay type: cell-based; details: 48 hours, read-out: Anti-proliferation IC50, Jurkat
Method: as §2

[6] = target: AMPK (A1/B1/G1) (Homo sapiens, UniProt Q13131); test: Kinase profiling, recombinant kinase; assay type: biochemical; details: 5 uM ATP
[7] = test system: IL-8; test: BioMap BF4T lung epithelium inflammation system; assay type: cell-based; details: stimulated human primary bronchial epithelial cells, 24 hours, ELISA
Method: (§3) The compounds were assayed in the Eurofin's BioMap system (BF4T Cells) which models Th2-type lung inflammation, an environment that promotes the recruitment of eosinophils, mast cells, neutrophils, and basophils as well as effector memory T cells. This system is relevant for allergy and asthma, pulmonary fibrosis, as well as chronic obstructive pulmonary disorder (COPD) exacerbations. The human primary bronchial epithelial cells were cultured and stimulated to induce the inflammatory factors responsible for the pathogenesis of various inflammatory diseases in the lung. The test compounds were added to the in vitro model culture system and incubated for 24 hours. The supernatants were collected and assayed for the protein production of various molecules using ELISA assays. The biomarkers assayed included MCP-1, Eotaxin-3, VCAM-1, ICAM-1, CD90, IL-8, IL1α, Keratin 8/18, MMP1, MMP-3, MMP-9, PAI-1, SRB, tPA, and uPA.

[8] = test system: VCAM-1; test: BioMap BF4T lung epithelium inflammation system; assay type: cell-based; details: stimulated human primary bronchial epithelial cells, 24 hours, ELISA
Method: as §3

[9] = test system: ICAM-1; test: BioMap BF4T lung epithelium inflammation system; assay type: cell-based; details: stimulated human primary bronchial epithelial cells, 24 hours, ELISA
Method: as §3

[10] = test system: IL-1α; test: BioMap BF4T lung epithelium inflammation system; assay type: cell-based; details: stimulated human primary bronchial epithelial cells, 24 hours, ELISA
Method: as §3

[11] = test system: A549 cells; test: Cell viability (MTS); assay type: cell-based
Method: as §1

[12] = target: T1, Aryl Hydrocarbon Receptor (AhR) (Homo sapiens, UniProt P35869); test: AhR-CYP1A1-bla LS-180 beta-lactamase reporter assay; assay type: cell-based; details: AhR-CYP1A1-bla LS-180 cells, 24 hours; read-out: EC50, AhR activation
T1 construct: host or cells: AhR-CYP1A1-bla LS-180
Method: This assay was performed using Invitrogen's CellSensor® cell line AhR-CYP1A1-bla LS-180 with GeneBLAzer® Beta-lactamase (bla) Reporter Technology as the detection method. When the AhR-CYP1A1 pathway is activated or inhibited, Beta-lactamase reporter activity is modulated and is measured quantitatively and selectively with the LiveBLAzer™-FRET B/G Loading Substrate.
Briefly, the AhR-CYP1A1-bla LS-180 cells were grown in Growth Media (MEM, 10% FBS, 0.1 mM NEAA, 1 mM Sodium Pyruvate). Cells were dissociated and resuspended in Assay Media (OPTI-MEM, 0.5% dialyzed FBS, 0.1 mM NEAA, 1 mM Sodium Pyruvate). Around 2×10^4 cells in a volume of 32 μL of assay media was added to each well of a 384 well Poly-D-Lysine assay plate. After incubation for 16 hours at 37° C. in a humidified incubator, 4 μL of a 10× serial dilution of test compounds were added to appropriate wells of the plate. The plate was incubated for 24 hours at 37° C. For the reporter activity assay, 8 μL of 1 μM Substrate was added to each well and the plate was incubated for 2 hours at room temperature. The plate was read on a fluorescence plate reader.

[13] = test system: dextran sodium sulphate (DSS) induced model of inflammatory bowel disease (IBD)/colitis; test: DSS induced model of IBD/colitis; assay type: in vivo, female Balb/c mice; details: Day 0 to Day 8, DSS control group 24.2+5.7, normal control 1.9+2.4
Method: The efficacy of Compound 2 was tested in a dextran sodium sulphate (DSS) induced model of inflammatory bowel disease (IBD)/colitis in female Balb/c mice. Rolipram was used as a positive control in this experiment. Colitis was induced in the mice by providing drinking water containing DSS (3.5%, M. Wt. 30,000-50,000) from Day 0 to Day 8. The test compounds were administered as per their respective groups at specific dose levels starting from Day 0 through to Day 8. […] For dosing, Compound 2 was dissolved in vehicle (1.5% Cremophor EL) at 3 mg/mL and 1 mg/mL for the 30 and 10 mg/kg doses, respectively. […] All doses were administered by oral gavage.
There was a considerable increase in disease activity index (DAI) (cumulative scores of body weight, stool consistency and rectal bleeding) in the DSS control group (24.2+5.7) when compared to normal control group (1.9+2.4) which indicated very good disease induction.

[14] = target: T2, recombinant human PDE4B1 enzyme (Homo sapiens, UniProt Q07343); test: PDE4B1 radiometric enzyme assay; assay type: biochemical; details: for Inhibitory activity on PDE4B1 enzyme: 1 μM cAMP
T2 construct: host or cells: baculoviral system
T2 sequence (Q07343 whole entry): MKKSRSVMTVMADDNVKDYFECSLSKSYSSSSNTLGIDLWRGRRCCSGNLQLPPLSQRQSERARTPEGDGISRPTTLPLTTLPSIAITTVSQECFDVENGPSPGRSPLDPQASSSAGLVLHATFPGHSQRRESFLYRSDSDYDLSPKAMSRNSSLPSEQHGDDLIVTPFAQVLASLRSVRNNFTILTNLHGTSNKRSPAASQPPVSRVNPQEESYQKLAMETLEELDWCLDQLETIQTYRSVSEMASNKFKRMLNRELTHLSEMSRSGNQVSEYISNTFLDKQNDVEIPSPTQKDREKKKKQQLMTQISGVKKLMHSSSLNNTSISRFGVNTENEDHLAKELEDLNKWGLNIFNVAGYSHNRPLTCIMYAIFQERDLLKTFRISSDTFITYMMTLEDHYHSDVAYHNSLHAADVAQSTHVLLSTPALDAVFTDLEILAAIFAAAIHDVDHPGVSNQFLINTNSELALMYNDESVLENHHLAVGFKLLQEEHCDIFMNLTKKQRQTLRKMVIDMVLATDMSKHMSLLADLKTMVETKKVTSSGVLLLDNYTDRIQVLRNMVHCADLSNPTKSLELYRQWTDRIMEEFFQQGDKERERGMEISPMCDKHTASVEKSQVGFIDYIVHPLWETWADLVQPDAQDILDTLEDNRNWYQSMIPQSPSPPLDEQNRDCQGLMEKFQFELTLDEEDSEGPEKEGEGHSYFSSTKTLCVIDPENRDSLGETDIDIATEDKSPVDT
Method: Assays were performed using recombinant human PDE4B1 enzyme expressed in a baculoviral system. […] The reactions were performed at 1 μM of cAMP. The test articles were each tested at 0.2 μM and 20 μM in triplicates.

[15] = target: p38 β (Homo sapiens, UniProt Q15759); test: Kinase profiling, recombinant kinase; assay type: biochemical; details: 5 uM ATP
Method: (§4) Kinase profiling was conducted using different recombinant kinase targets against the compounds at 5 uM ATP. The kinases tested included AKT1 (RAC-alpha serine/threonine-protein kinas 1), JAK2, JAK3, p38α, p38β (p38 mitogen-activated protein kinase beta), GSK3β, SYK (Spleen tyrosine kinase), LCK, IKKα and IKKβ and CLK4. The test compounds were tested at 5 μM and 50 μM in triplicates.

[16] = target: p38 α (Homo sapiens, UniProt Q16539); test: Kinase profiling, recombinant kinase; assay type: biochemical; details: 5 uM ATP
Chain of p38 α (Q16539 whole entry): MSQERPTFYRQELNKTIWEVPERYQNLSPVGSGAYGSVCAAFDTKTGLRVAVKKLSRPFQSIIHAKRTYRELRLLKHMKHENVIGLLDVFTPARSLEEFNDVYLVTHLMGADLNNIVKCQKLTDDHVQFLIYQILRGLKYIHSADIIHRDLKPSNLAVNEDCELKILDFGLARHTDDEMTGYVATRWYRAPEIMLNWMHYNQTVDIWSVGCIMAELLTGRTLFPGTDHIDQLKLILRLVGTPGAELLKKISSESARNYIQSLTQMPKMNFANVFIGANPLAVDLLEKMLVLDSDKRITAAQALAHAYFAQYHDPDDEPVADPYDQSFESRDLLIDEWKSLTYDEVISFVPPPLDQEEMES
Method: as §4

[17] = target: SYK (Homo sapiens, UniProt P43405); test: Kinase profiling, recombinant kinase; assay type: biochemical; details: 5 uM ATP
Method: as §4

[18] = target: LCK (Homo sapiens, UniProt P06239); test: Kinase profiling, recombinant kinase; assay type: biochemical; details: 5 uM ATP
Chain of LCK (P06239 whole entry, species assumed): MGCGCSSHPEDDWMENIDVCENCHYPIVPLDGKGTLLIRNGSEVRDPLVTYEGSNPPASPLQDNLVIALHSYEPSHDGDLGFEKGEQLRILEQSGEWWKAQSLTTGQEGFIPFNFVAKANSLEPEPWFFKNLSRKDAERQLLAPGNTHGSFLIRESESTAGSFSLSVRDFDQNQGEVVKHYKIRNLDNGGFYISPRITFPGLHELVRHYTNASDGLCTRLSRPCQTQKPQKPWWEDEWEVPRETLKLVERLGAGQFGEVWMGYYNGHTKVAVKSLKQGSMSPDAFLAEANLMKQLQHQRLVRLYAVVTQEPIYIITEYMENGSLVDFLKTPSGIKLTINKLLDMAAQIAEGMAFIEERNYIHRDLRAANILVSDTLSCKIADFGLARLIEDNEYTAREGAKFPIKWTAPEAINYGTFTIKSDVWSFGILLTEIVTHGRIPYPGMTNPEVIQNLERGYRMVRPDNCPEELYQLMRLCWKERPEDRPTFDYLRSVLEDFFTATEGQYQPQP
Method: as §4

[19] = target: AKT1 (Homo sapiens, UniProt P31749); test: Kinase profiling, recombinant kinase; assay type: biochemical; details: 5 uM ATP
Method: as §4

[20] = target: GSK3 β (Homo sapiens, UniProt P49841); test: Kinase profiling, recombinant kinase; assay type: biochemical; details: 5 uM ATP
Chain of GSK3 β (P49841 whole entry, species assumed): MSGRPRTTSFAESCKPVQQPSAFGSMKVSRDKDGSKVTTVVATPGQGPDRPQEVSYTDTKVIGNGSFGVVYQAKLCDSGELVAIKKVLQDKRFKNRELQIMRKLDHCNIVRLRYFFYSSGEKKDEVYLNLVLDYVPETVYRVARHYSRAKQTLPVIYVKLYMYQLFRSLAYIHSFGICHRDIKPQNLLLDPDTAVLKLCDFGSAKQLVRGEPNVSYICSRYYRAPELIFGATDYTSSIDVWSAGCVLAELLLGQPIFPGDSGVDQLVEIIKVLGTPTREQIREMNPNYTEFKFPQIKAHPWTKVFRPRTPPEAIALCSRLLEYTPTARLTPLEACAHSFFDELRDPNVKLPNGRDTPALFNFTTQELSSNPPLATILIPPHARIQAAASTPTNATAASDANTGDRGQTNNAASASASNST
Method: as §4

[21] = target: IKK α (Homo sapiens, UniProt O15111); test: Kinase profiling, recombinant kinase; assay type: biochemical; details: 5 uM ATP
Method: as §4

[22] = target: JAK2 (Homo sapiens, UniProt O60674); test: Kinase profiling, recombinant kinase; assay type: biochemical; details: 5 uM ATP
Chain of JAK2 (O60674 whole entry, species assumed): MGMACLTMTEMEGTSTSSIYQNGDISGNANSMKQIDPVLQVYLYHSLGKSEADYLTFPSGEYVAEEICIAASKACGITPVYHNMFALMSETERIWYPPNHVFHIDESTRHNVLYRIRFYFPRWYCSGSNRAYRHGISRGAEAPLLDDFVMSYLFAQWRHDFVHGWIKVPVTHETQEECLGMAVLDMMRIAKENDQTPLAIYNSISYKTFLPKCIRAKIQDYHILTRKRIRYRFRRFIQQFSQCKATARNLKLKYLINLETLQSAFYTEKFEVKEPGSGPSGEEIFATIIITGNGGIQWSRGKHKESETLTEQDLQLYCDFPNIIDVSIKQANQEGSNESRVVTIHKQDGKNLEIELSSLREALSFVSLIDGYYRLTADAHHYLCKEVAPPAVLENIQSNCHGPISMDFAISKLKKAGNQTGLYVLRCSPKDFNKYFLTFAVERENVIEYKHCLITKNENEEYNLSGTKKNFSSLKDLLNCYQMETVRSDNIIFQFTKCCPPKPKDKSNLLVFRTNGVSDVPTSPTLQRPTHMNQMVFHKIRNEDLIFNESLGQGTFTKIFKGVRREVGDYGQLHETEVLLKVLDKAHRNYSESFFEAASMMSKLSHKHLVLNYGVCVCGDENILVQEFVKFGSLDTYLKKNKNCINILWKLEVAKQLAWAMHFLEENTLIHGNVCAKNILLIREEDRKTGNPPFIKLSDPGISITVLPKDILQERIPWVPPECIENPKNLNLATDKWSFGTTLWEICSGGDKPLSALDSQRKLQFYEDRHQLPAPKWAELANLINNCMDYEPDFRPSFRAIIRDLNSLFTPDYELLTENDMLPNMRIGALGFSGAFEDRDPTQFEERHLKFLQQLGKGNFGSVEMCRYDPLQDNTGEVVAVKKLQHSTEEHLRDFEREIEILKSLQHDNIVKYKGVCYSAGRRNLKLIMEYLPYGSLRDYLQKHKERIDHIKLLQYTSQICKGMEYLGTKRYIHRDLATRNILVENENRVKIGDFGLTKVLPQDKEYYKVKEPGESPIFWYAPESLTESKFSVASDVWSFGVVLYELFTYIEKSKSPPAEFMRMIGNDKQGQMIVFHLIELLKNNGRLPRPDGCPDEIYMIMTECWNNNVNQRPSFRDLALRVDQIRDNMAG
Method: as §4

[23] = target: CLK4 (Homo sapiens, UniProt Q9HAZ1); test: Kinase profiling, recombinant kinase; assay type: biochemical; details: 5 uM ATP
Method: as §4

[24] = target: IKK β (Homo sapiens, UniProt O14920); test: Kinase profiling, recombinant kinase; assay type: biochemical; details: 5 uM ATP
Chain of IKK β (O14920 whole entry, species assumed): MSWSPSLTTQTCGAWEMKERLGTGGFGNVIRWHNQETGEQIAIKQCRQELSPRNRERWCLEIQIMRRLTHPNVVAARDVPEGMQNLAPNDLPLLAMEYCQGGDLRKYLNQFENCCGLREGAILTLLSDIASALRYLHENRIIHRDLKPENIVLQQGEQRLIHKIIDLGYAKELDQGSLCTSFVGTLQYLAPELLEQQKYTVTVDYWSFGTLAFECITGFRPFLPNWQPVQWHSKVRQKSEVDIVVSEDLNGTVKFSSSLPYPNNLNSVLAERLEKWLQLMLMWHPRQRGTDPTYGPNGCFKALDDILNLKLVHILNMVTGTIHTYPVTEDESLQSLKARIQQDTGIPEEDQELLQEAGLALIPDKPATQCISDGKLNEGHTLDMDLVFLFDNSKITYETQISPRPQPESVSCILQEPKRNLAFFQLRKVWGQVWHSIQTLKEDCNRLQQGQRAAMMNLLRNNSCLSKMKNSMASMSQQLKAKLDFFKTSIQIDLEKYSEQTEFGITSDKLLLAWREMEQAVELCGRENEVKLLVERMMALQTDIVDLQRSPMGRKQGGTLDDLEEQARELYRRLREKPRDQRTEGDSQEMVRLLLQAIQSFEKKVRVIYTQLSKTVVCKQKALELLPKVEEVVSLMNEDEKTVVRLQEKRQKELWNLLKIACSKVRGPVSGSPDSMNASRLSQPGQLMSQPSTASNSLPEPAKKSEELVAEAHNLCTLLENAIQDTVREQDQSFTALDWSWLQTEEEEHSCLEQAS
Method: as §4

[25] = target: JAK3 (Homo sapiens, UniProt P52333); test: Kinase profiling, recombinant kinase; assay type: biochemical; details: 5 uM ATP
Chain of JAK3 (P52333 whole entry, species assumed): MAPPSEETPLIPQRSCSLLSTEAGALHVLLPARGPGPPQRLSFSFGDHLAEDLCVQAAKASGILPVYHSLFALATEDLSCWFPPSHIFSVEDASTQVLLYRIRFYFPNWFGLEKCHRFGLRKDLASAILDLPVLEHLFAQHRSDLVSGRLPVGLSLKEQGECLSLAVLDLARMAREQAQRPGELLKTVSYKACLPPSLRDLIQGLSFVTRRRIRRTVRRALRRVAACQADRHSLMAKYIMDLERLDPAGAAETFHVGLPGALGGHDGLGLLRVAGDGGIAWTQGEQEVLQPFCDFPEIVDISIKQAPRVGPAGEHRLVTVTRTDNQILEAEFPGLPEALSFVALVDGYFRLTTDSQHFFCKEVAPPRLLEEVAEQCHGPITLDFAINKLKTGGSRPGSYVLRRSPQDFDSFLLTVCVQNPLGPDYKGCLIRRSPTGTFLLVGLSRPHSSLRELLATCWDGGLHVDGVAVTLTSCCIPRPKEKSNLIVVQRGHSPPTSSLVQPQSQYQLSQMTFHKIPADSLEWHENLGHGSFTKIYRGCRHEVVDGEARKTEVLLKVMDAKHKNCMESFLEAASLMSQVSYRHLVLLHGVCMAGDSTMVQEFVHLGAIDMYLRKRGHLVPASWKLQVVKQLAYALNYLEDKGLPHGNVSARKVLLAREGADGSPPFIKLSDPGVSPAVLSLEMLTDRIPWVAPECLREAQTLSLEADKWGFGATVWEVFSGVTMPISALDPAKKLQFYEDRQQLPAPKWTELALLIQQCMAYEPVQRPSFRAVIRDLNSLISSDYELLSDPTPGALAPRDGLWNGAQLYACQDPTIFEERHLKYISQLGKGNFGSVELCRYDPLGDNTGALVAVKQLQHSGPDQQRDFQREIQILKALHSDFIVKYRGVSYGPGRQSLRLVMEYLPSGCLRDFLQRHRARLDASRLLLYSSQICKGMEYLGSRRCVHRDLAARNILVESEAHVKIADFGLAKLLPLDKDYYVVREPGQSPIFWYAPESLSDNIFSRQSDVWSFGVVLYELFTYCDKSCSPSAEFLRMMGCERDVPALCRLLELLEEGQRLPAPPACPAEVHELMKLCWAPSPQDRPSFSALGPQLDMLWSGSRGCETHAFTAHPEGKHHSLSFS
Method: as §4

[26] = Homo sapiens, MDA-MB-435, 48 hours
[27] = read-out: Inhibitory activity on PDE4B1 enzyme

Compound: CC(C)c1ccc(/C=C/c2ccccc2)cc1O [Compound 1]
- IC50 ([1]; 48 hours): 2250 nM
- IC50 ([2]; 48 hours): 25000 nM
- IC50 [3]: 2160 nM

Compound: CC(C)c1ccc(/C=C/c2ccc(F)cc2)cc1O [Compound 2, 3-hydroxy-4-isopropyl-4′-fluoro-(E)-stilbene]
- IC50 [4, 26]: 6020 nM
- IC50 ([5]; Homo sapiens, Jurkat): 1670 nM
- inhibition at 5 µM ([6]; 5 μM compound): < 20%
- inhibition at 50 µM ([6]; 50 μM compound): > 50%
- effect on production of IL-8 [7]: suppress the production
- effect on production of VCAM-1 [8]: suppress the production
- effect on production of ICAM-1 [9]: suppress the production
- effect on production of IL-1α [10]: suppress the production
- IC50 ([1]; Homo sapiens, THP-1, 48 hours): 3150 nM
- IC50 [2, 26]: 24900 nM
- IC50 ([11]; Homo sapiens, A549, 48 hours): 45000 nM
- IC50 ([3]; Homo sapiens, Jurkat): 7600 nM
- EC50 [12]: 27 nM
- disease activity index (DAI) (cumulative scores of body weight, stool consistency and rectal bleeding) ([13]; 10 mg/kg oral gavage): 17.4+12.0
- disease activity index (DAI) (cumulative scores of body weight, stool consistency and rectal bleeding) ([13]; 30 mg/kg oral gavage): 15.4+4.9
- inhibition at 0.2 µM [14, 27]: 15 to 30%
- inhibition at 20 µM [14, 27]: > 50%
- inhibition at 5 µM ([15]; 5 μM compound): < 20%
- inhibition at 50 µM ([15]; 50 μM compound): 20 to 30%
- inhibition at 5 µM ([16]; 5 μM compound): < 20%
- inhibition at 50 µM ([16]; 50 μM compound): > 50%
- inhibition at 5 µM ([17]; 5 μM compound): < 20%
- inhibition at 50 µM ([17]; 50 μM compound): < 20%
- inhibition at 5 µM ([18]; 5 μM compound): < 20%
- inhibition at 50 µM ([18]; 50 μM compound): 31 to 50%
- inhibition at 5 µM ([19]; 5 μM compound): < 20%
- inhibition at 50 µM ([19]; 50 μM compound): < 20%
- inhibition at 5 µM ([20]; 5 μM compound): < 20%
- inhibition at 50 µM ([20]; 50 μM compound): > 50%
- inhibition at 5 µM ([21]; 5 μM compound): < 20%
- inhibition at 50 µM ([21]; 50 μM compound): < 20%
- inhibition at 5 µM ([22]; 5 μM compound): < 20%
- inhibition at 50 µM ([22]; 50 μM compound): > 50%
- inhibition at 5 µM ([23]; 5 μM compound): > 50%
- inhibition at 50 µM ([23]; 50 μM compound): > 50%
- inhibition at 5 µM ([24]; 5 μM compound): < 20%
- inhibition at 50 µM ([24]; 50 μM compound): 31 to 50%
- inhibition at 5 µM ([25]; 5 μM compound): < 20%
- inhibition at 50 µM ([25]; 50 μM compound): 20 to 30%

Compound: Oc1cc(/C=C/c2ccccc2)ccc1C1CC1 [Compound 11]
- IC50 ([4]; 48 hours): 4250 nM
- IC50 [5]: 1710 nM

Further lines, with some results ahead:

- IC50 ([1]; 48 hours): 15400 nM
- IC50 ([2]; 48 hours): 1620 nM
- IC50 ([11]; 48 hours): 32000 nM
- IC50 [3]: 1650 nM
- Inhibitory activity on PDE4B1 enzyme ([14]; 0.2 μM compound): + (“+” is 15-30% inhibition)
Compound: Oc1cc(/C=C/c2ccc(F)cc2)ccc1C1CC1 [Compound 12]
- Inhibitory activity on PDE4B1 enzyme ([14]; 20 μM compound): +++ (“+++” is greater than 50% inhibition)

- IC50 ([4]; 48 hours): 1660 nM
- IC50 [5]: 1380 nM
- IC50 ([1]; 48 hours): 2740 nM
- IC50 ([2]; 48 hours): 1780 nM
- IC50 [3]: 7980 nM
Compound: N#Cc1ccc(/C=C/c2ccc(C3CC3)c(O)c2)c(C#N)c1 [Compound 17]
